Measurements as given in the supplement of paper PMC10307832.

What was measured:
Assay in all cases: relative viability (nuclei count vs DMSO), 5 days (fraction); higher = more cells survive
[1] = compound: CC1CC(=O)N(C2=CN=C(N=C2N1C3CCCC3)NC4=C(C=C(C=C4)C(=O)NC5CCN(CC5)C)OC)C [NPK76-II-72-1] + COc1cc2c(Oc3ccc(NC(=O)C4(C(=O)Nc5ccc(F)cc5)CC4)cc3F)ccnc2cc1OCCCN1CCOCC1 [Foretinib] (partner 0.25 µM)
How it was run: (§1)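 Dosing by pin tool came one day after lung cancer cell lines were seeded in 1536-well plates, using either one drug or a fixed anchor-drug dose plus five library-drug doses (not always all listed) in √10 steps. After 5 days, nuclei were counted on 4× images. Relative viability is treated-well nuclei count divided by vehicle-well nuclei count, and values are medians of duplicate plates.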

BI-2536 + OSI-027 = compound: CC[C@@H]1C(=O)N(C)c2cnc(Nc3ccc(C(=O)NC4CCN(C)CC4)cc3OC)nc2N1C1CCCC1 [BI-2536] + COc1cccc2cc(-c3nc([C@H]4CC[C@H](C(=O)O)CC4)n4ncnc(N)c34)[nH]c12 [OSI-027] (partner 0.5 µM)
How it was run: as §1

BI-2536 + Lapatinib = compound: CC[C@@H]1C(=O)N(C)c2cnc(Nc3ccc(C(=O)NC4CCN(C)CC4)cc3OC)nc2N1C1CCCC1 [BI-2536] + CS(=O)(=O)CCNCc1ccc(-c2ccc3ncnc(Nc4ccc(OCc5cccc(F)c5)c(Cl)c4)c3c2)o1 [Lapatinib] (partner 2 µM)
How it was run: as §1

BI-2536 + Pemetrexed = compound: CC[C@@H]1C(=O)N(C)c2cnc(Nc3ccc(C(=O)NC4CCN(C)CC4)cc3OC)nc2N1C1CCCC1 [BI-2536] + Nc1nc2[nH]cc(CCc3ccc(C(=O)N[C@@H](CCC(=O)O)C(=O)O)cc3)c2c(=O)[nH]1 [Pemetrexed] (partner 0.2 µM)
How it was run: as §1

Row | Cell Line | relative viability ([1]; first compound 0.01 µM) | relative viability ([1]; first compound 0.03162 µM) | relative viability ([1]; first compound 0.1 µM) | relative viability ([1]; first compound 0.3162 µM) | relative viability ([1]; first compound 1 µM) | relative viability (BI-2536 + OSI-027; first compound 0.01 µM) | relative viability (BI-2536 + OSI-027; first compound 0.03162 µM) | relative viability (BI-2536 + OSI-027; first compound 0.1 µM) | relative viability (BI-2536 + OSI-027; first compound 0.3162 µM) | relative viability (BI-2536 + OSI-027; first compound 1 µM) | relative viability (BI-2536 + Lapatinib; first compound 0.01 µM) | relative viability (BI-2536 + Lapatinib; first compound 0.03162 µM) | relative viability (BI-2536 + Lapatinib; first compound 0.1 µM) | relative viability (BI-2536 + Lapatinib; first compound 0.3162 µM) | relative viability (BI-2536 + Lapatinib; first compound 1 µM) | relative viability (BI-2536 + Pemetrexed; first compound 0.01 µM) | relative viability (BI-2536 + Pemetrexed; first compound 0.03162 µM) | relative viability (BI-2536 + Pemetrexed; first compound 0.1 µM) | relative viability (BI-2536 + Pemetrexed; first compound 0.3162 µM) | relative viability (BI-2536 + Pemetrexed; first compound 1 µM)
1 | PC-14 | 0.936 | 1.1 | 0.894 | 0.928 | 1.01 | 0.906 | 0.546 | 0.111 | 0.032 | 0.0346 | 0.323 | 0.408 | 0.342 | 0.0746 | 0.0774 | 0.15 | 0.14 | 0.132 | 0.0335 | 0.0205
2 | RERF-LC-KJ | 0.768 | 0.899 | 0.894 | 0.808 | 0.884 | 0.64 | 0.361 | 0.184 | 0.188 | 0.198 | 0.862 | 0.842 | 0.775 | 0.179 | 0.206 | 0.46 | 0.46 | 0.31 | 0.186 | 0.213
3 | SK-LU-1 | 0.814 | 0.83 | 0.879 | 0.833 | 0.893 | 0.341 | 0.278 | 0.198 | 0.172 | 0.146 | 0.815 | 0.715 | 0.495 | 0.252 | 0.189 | 0.94 | 0.938 | 0.392 | 0.265 | 0.243
4 | SK-MES-1 | 0.975 | 0.957 | 0.877 | 0.808 | 0.912 | 0.601 | 0.458 | 0.178 | 0.173 | 0.182 | 0.465 | 0.45 | 0.503 | 0.213 | 0.186 | 0.912 | 0.887 | 0.66 | 0.205 | 0.197
5 | SW 1573 | 0.997 | 1.02 | 0.914 | 0.963 | 0.824 | 0.681 | 0.44 | 0.133 | 0.0966 | 0.0839 | 1.1 | 1.2 | 1.12 | 0.186 | 0.18 | 0.753 | 0.516 | 0.149 | 0.124 | 0.0813
